How the values were obtained:
Assay type in all cases: cell-based
[1] = target: T1, Halo-Akt2 (Homo sapiens, UniProt P31751); experiment: AKTAR FRET assay in live HEK293T cells; settings: 5 μM, 24 hours
T1 construct: expressed in transfected cells; host or cells: HEK293T
Method: (§1) FIGS. 21C-21D: HEK293T cells were transfected with plasmids encoding AKTAR and Halo-Akt3 (1:1). After 12 hours, cells were treated with MK-2206 (5 μM) or MK-HNE (5 μM). After 24 hours and 48 hours Akt3 activity was measured using ratiometric FRET analysis in live cells. After 48 hours, cells were washed two times with drug-free media containing 10% FBS and allowed to recover in 3% FBS MEM media for another 24 hours, after which time Akt3 activity was assayed using FRET again. wd=withdrawal for 24 hours. […] FIG. 21D is a graph showing quantitation of all data sets for treatment of HEK293T cells expressing Halo-Akt3/AKTAR. […] FIG. 21F is a graph showing quantitation of all data sets for treatment of HEK293T cells expressing Halo-Akt2/AKTAR. […] FIG. 21H is a graph showing quantitation of all data sets for treatment of HEK293T cells expressing Halo-Akt3C119S mutant/AKTAR.
(§2) HEK293T cells were plated in imaging plates at 60% confluence. After 24 hours, cells in each plate were transfected with 1 μg AktAR reporter plasmid and 1 μg plasmid of the designated HaloTag fusion Akt gene in PCS2+8 vector, using TransIT 2020 (6 μL) (FIG. 21B). 12 hours after transfection, cells were treated with 5 μM inhibitor or the equivalent final volume of DMSO in rinse medium containing 3% FBS and incubated for 24 hours before imaging. FRET imaging was performed using a Zeiss LSM 710 confocal microscope as previously described. Briefly, a 458 nm argon laser was used for excitation. The signals in the cyan channel (463-498 nm) and the yellow channel (525-620 nm) were recorded. Cells were then incubated in drug medium for another 24 hours before next imaging. The medium was aspirated and the cells were gently rinsed with 3% FBS in rinse medium twice every 30 min over the next hour, Fresh rinse medium with 3% FBS was added and the cells were imaged again after 24 hours. For quantification, the mean CFP and YFP signal intensity was measured using Image by drawing a freehand circle around the cells, and the ratio image was calculated. Graphing and data analysis (Student's t-test) were performed using Prism software.
(§3) One of the key benefits of covalent inhibition is the ability to uncouple pharmacokinetics from pharmacodynamics. This effect is achieved, because once irreversible inhibition occurs, an irreversible inhibitor will remain bound to its target post clearance of the unbound inhibitor. On the other hand, for a reversible inhibitor, as drug concentration drops, the drug is released from its target and inhibition is lost. This situation can be modeled in cell culture by removal of the drug from the media and measuring changes in activity as a function of time post drug removal. Akt inhibition was assayed using AKTAR (FIG. 21A). This fusion of two fluorescent proteins emits two different frequencies of light when excited with blue light, depending on the activity of Akt. When the construct is selectively phosphorylated by Akt, both blue and green light are emitted, due to fluorescence resonance energy transfer (FRET) from the CFP to the YFP. However, when the protein is not phosphorylated, emission is mainly in the blue channel. Thus the ratio of green to blue emission is a direct readout of Akt activity in live cells.

[2] = target: T2, Halo-Akt3 (Homo sapiens, UniProt Q9Y243); experiment: AKTAR FRET assay in live HEK293T cells; settings: for Akt3 activity (green/blue FRET ratio) during treatment: 5 μM, 24 hours
T2 construct: expressed in transfected cells; host or cells: HEK293T
T2 sequence (Q9Y243 whole entry): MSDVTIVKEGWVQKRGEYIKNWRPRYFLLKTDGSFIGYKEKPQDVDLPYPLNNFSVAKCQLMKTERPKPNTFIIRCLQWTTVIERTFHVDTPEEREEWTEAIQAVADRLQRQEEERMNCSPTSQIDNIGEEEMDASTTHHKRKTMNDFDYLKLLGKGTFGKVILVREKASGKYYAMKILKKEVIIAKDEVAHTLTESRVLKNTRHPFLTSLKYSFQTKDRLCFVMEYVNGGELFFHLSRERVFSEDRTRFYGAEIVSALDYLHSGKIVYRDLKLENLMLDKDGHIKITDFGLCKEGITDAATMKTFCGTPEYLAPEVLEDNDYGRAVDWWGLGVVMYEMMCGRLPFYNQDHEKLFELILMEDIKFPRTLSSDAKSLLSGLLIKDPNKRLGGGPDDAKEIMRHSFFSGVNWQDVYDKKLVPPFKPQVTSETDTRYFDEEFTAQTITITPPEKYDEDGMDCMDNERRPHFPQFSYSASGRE
Method: as §1, §2, §3

[3] = test system: MDA-MB-468 cells; experiment: Cell cycle analysis using flow cytometry; settings: for effect on cell cycle: 72 hours
Method: MDA-MB-468 cells in a 6-well plate at 10% confluence were treated with HNE alkyne or the indicated drug at PI60 or PI80 concentration for 72 hours at 37° C. Negative control contained the equivalent volume of DMSO. Cells were grown and analyzed in separate batches of 1-2 replicates per condition that were run 2-3 times each. Each time the data points were normalized to the control set for each batch. At the indicated time post compound treatment, the culture medium was aspirated and the adherent cells were detached from the plate using trypsin, quenched with complete media, centrifuged (700 g), washed once with PBS, centrifuged (700 g), resuspended in PBS, then fixed with 70% ethanol for 24 hours. The cell suspensions were spun down at 1,000 g and washed with 500 μl of PBS twice. Each cell pellet was treated with 500 μL staining solution containing 50 μl of Ribonuclease A (≥70 Kunitz units/mg proteins, R6513, Sigma-Aldrich) and 50 μl of a propidium iodide (1 mg/ml, Sigma-Aldrich) solution in PBS with 1% BSA. The resulting solution was incubated with agitation at room temperature for 30 min in the dark.
The stained cells were assayed on a BD LSR II flow cytometer. FlowJo® was used to deconvolute the signals. Cells were grouped first by forward and side scatter (area), then that group was regrouped using forward (width) versus forward (area) scatter to give single cells. Cells were than analyzed using cellular DNA content to quantitate the percentage of cells in the respective phases (G1, S, G2/M and sub-G0) of the cell cycle.

[4] = target: T3, Akt3 (pT305) (Homo sapiens, UniProt Q9Y243); experiment: Western blot and ratiometric ELISA of Akt phosphorylation in HEK293T cells; settings: 5 μM, 48 hours
T3 construct: expressed in transfected cells; host or cells: HEK293T
T3 sequence (Q9Y243 whole entry): as above
Method: After this time, cells were lysed and analyzed by antibodies for phosphorylated T305 (pT305) of Akt3, Halo (Akt), and Actin (loading control). […] FIG. 23F is a graph showing proliferation curves. […] After this time, the number of viable cells was calculated using AlamarBlue®. Proliferation curves were fitted to the PI50 equation (EQN. 4). […] FIG. 23H is a graph showing the percentage of viable cells. […] The percentage of growth relative to DMSO-treated cells is shown for the 48 hour point and the 72 hour point. FIG. 23I is a schematic showing the different methods used to derive the data in 23H.
The proteins in gel were transferred onto a PVDF membrane in Towbin buffer at 90 V for 2 hours at 4° C. or at 33 V overnight at 4° C. […] Proteins were visualized using Pierce™ ECL Western Blotting Substrate (32106, Thermo Fisher), Pierce™ ECL2 Western Blotting Substrate (32132, Thermo Fisher) or SuperSignal™ Western Blot Enhancer (46640, Thermo Fisher), depending on the signal strength.
Anti-Halo antibody at 1 μg/mL concentration in sodium bicarbonate buffer (pH 9.6) was added to a 96-well white plate (80 μL […]) at 4° C. for 24 hours. After this, the incubation buffer was removed and the wells were washed once with TBS-T2 (100 mM Tris, 150 mM NaCl 0.03% Tween-20) and then blocked in 5% BSA in TBS-T2 (280 μL per well) for 3-5 hours at room temperature. […]

T1 sequence (P31751 whole entry): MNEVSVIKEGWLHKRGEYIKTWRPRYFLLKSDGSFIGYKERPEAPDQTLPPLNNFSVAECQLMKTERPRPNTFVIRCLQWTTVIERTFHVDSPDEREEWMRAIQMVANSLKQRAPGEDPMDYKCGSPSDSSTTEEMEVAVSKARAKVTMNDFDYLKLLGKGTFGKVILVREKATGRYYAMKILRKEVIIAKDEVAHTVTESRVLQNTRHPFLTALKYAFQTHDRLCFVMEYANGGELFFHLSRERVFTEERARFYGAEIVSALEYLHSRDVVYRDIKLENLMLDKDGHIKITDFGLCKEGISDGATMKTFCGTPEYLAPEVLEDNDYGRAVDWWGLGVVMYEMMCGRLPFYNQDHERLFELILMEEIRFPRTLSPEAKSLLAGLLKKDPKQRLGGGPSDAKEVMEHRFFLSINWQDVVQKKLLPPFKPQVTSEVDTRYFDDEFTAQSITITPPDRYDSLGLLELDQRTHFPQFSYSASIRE

NC1(c2ccc(-c3nc4ccn5c(=O)[nH]nc5c4cc3-c3ccccc3)cc2)CCC1 [MK-2206]
Akt2 activity (green/blue FRET ratio) during treatment [1]: decrease in green/blue fluorescence | Akt3 activity (green/blue FRET ratio) during treatment [2]: decrease in green/blue fluorescence | Akt3 activity (green/blue FRET ratio) after drug withdrawal ([2]; 48 hours drug, then 24 hours withdrawal): returned to those observed in untreated cells | G1/G0 (percentage of cells in phase) ([3]; drug at PI60, 72 hours): 41.8 | G2/M (percentage of cells in phase) ([3]; drug at PI60, 72 hours): 31.3 | S (percentage of cells in phase) ([3]; drug at PI60, 72 hours): 25.4 | subG0 (percentage of cells in phase) ([3]; drug at PI60, 72 hours): 0.3 | G1/G0 (percentage of cells in phase) ([3]; drug at PI80, 72 hours): 50.2 | G2/M (percentage of cells in phase) ([3]; drug at PI80, 72 hours): 29.0 | S (percentage of cells in phase) ([3]; drug at PI80, 72 hours): 19.6 | subG0 (percentage of cells in phase) ([3]; drug at PI80, 72 hours): 0.3 | phosphorylation of T305 of Akt3 [4]: lowered phospho-T305 (pT305) levels considerably

C#CCCCC(F)/C=C/C(=O)NC1(c2ccc(-c3nc4ccn5c(=O)[nH]nc5c4cc3-c3ccccc3)cc2)CCC1.Cl (stereo not drawn) [MK-FNE, (E)-8-(4-(1-(4-Fluoronon-2-en-8-ynamido)cyclobutyl)phenyl)-3-oxo-9-phenyl-2,3-dihydro-[1,2,4]triazolo[3,4-f][1,6]naphthyridin-7-ium Chloride]
Akt2 activity (green/blue FRET ratio) during treatment [1]: decrease in green/blue fluorescence | Akt3 activity (green/blue FRET ratio) during treatment [2]: decrease in green/blue fluorescence | effect on cell cycle [3]: G1 arrest | G1/G0 (percentage of cells in phase) ([3]; drug at PI60, 72 hours): 47.0 | G2/M (percentage of cells in phase) ([3]; drug at PI60, 72 hours): 33.3 | S (percentage of cells in phase) ([3]; drug at PI60, 72 hours): 18.6 | subG0 (percentage of cells in phase) ([3]; drug at PI60, 72 hours): 0.5 | G1/G0 (percentage of cells in phase) ([3]; drug at PI80, 72 hours): 58.9 | G2/M (percentage of cells in phase) ([3]; drug at PI80, 72 hours): 27.0 | S (percentage of cells in phase) ([3]; drug at PI80, 72 hours): 11.9 | subG0 (percentage of cells in phase) ([3]; drug at PI80, 72 hours): 0.8

C#CCCCC(O)/C=C/C(=O)NC1(c2ccc(-c3nc4ccn5c(=O)[nH]nc5c4cc3-c3ccccc3)cc2)CCC1.Cl (stereo not drawn) [MK-HNE, (E)-8-(4-(1-(4-Hydroxynon-2-en-8-ynamido)cyclobutyl)phenyl)-3-oxo-9-phenyl-2,3-dihydro-[1,2,4]triazolo[3,4-f][1,6]naphthyridin-7-ium Chloride]
effect on cell cycle [3]: G1 arrest | G1/G0 (percentage of cells in phase) ([3]; drug at PI60, 72 hours): 41.7 | G2/M (percentage of cells in phase) ([3]; drug at PI60, 72 hours): 30.3 | S (percentage of cells in phase) ([3]; drug at PI60, 72 hours): 25.9 | subG0 (percentage of cells in phase) ([3]; drug at PI60, 72 hours): 0.4 | G1/G0 (percentage of cells in phase) ([3]; drug at PI80, 72 hours): 49 | G2/M (percentage of cells in phase) ([3]; drug at PI80, 72 hours): 25.5 | S (percentage of cells in phase) ([3]; drug at PI80, 72 hours): 16.6 | subG0 (percentage of cells in phase) ([3]; drug at PI80, 72 hours): 5.5 | phosphorylation of T305 of Akt3 [4]: did not affect phosphorylation levels

Reference: patent publication US20200148682A1, “AKT ISOZYME-SPECIFIC COVALENT INHIBITORS DERIVED FROM REDOX-SIGNALING LIPIDS” (Cornell University, priority 2017, published 2020)
